Results published in paper PMC12670405, “Second-Generation AURKA-Targeting PROTACs: Structural Optimization toward in Vivo Degradation in Neuroblastoma” (Journal of Medicinal Chemistry, 2025).

Experiments:
Experiment in all cases: KINOMEscan scanMAX
Type in all cases: binding
Settings in all cases: read-out: Percent Control
[1] = molecular target: T1, MAK (Homo sapiens, UniProt P20794)
T1 construct: purchased Eurofins Discovery (DiscoverX KINOMEscan scanMAX)
Method: (§1) The kinome-wide binding assay was performed by Eurofins Discovery using the scanMAX screening platform. More information can be found on the Eurofins Discovery Web site.

[2] = molecular target: T2, TYK2(JH2domain-pseudokinase) (Homo sapiens, UniProt P29597)
T2 construct: TYK2(JH2domain-pseudokinase); purchased Eurofins Discovery (DiscoverX KINOMEscan scanMAX)
Method: as §1

[3] = molecular target: T3, ZAK (Homo sapiens, UniProt Q9NYL2)
T3 construct: purchased Eurofins Discovery (DiscoverX KINOMEscan scanMAX)
Method: as §1

[4] = molecular target: T4, BRAF(V600E) (Homo sapiens, UniProt P15056, V600E)
T4 construct: purchased Eurofins Discovery (DiscoverX KINOMEscan scanMAX)
Method: as §1

[5] = molecular target: T5, MLK1 (Homo sapiens, UniProt P80192)
T5 construct: purchased Eurofins Discovery (DiscoverX KINOMEscan scanMAX)
Method: as §1

[6] = molecular target: T6, CIT (Homo sapiens, UniProt O14578)
T6 construct: purchased Eurofins Discovery (DiscoverX KINOMEscan scanMAX)
Method: as §1

[7] = molecular target: T7, RIPK4 (Homo sapiens, UniProt P57078)
T7 construct: purchased Eurofins Discovery (DiscoverX KINOMEscan scanMAX)
Method: as §1

[8] = molecular target: T8, FLT3(D835V) (Homo sapiens, UniProt P36888, D835V)
T8 construct: purchased Eurofins Discovery (DiscoverX KINOMEscan scanMAX)
Method: as §1

[9] = molecular target: T9, PLK2 (Homo sapiens, UniProt Q9NYY3)
T9 construct: purchased Eurofins Discovery (DiscoverX KINOMEscan scanMAX)
Method: as §1

[10] = molecular target: T10, DDR2 (Homo sapiens, UniProt Q16832)
T10 construct: purchased Eurofins Discovery (DiscoverX KINOMEscan scanMAX)
Method: as §1

[11] = molecular target: T11, PDGFRB (Homo sapiens, UniProt P09619)
T11 construct: purchased Eurofins Discovery (DiscoverX KINOMEscan scanMAX)
Method: as §1

[12] = molecular target: T12, RET (Homo sapiens, UniProt P07949)
T12 construct: purchased Eurofins Discovery (DiscoverX KINOMEscan scanMAX)
Method: as §1

[13] = molecular target: T13, MUSK (Homo sapiens, UniProt O15146)
T13 construct: purchased Eurofins Discovery (DiscoverX KINOMEscan scanMAX)
Method: as §1

[14] = molecular target: T14, CAMK1D (Homo sapiens, UniProt Q8IU85)
T14 construct: purchased Eurofins Discovery (DiscoverX KINOMEscan scanMAX)
Method: as §1

[15] = molecular target: T15, INSR (Homo sapiens, UniProt P06213)
T15 construct: purchased Eurofins Discovery (DiscoverX KINOMEscan scanMAX)
Method: as §1

[16] = molecular target: T16, ERK4 (Homo sapiens, UniProt P31152)
T16 construct: purchased Eurofins Discovery (DiscoverX KINOMEscan scanMAX)
Method: as §1

[17] = molecular target: T17, SRPK2 (Homo sapiens, UniProt P78362)
T17 construct: purchased Eurofins Discovery (DiscoverX KINOMEscan scanMAX)
Method: as §1

[18] = molecular target: T18, SIK (Homo sapiens, UniProt P57059)
T18 construct: purchased Eurofins Discovery (DiscoverX KINOMEscan scanMAX)
Method: as §1

[19] = molecular target: T19, FYN (Homo sapiens, UniProt P06241)
T19 construct: purchased Eurofins Discovery (DiscoverX KINOMEscan scanMAX)
Method: as §1

[20] = molecular target: T20, BMPR1A (Homo sapiens, UniProt P36894)
T20 construct: purchased Eurofins Discovery (DiscoverX KINOMEscan scanMAX)
Method: as §1

[21] = molecular target: T21, MARK1 (Homo sapiens, UniProt Q9P0L2)
T21 construct: purchased Eurofins Discovery (DiscoverX KINOMEscan scanMAX)
Method: as §1

[22] = molecular target: T22, ULK2 (Homo sapiens, UniProt Q8IYT8)
T22 construct: purchased Eurofins Discovery (DiscoverX KINOMEscan scanMAX)
Method: as §1

[23] = molecular target: T23, PIK3CA(Q546K) (Homo sapiens, UniProt P42336, Q546K)
T23 construct: purchased Eurofins Discovery (DiscoverX KINOMEscan scanMAX)
Method: as §1

[24] = molecular target: T24, PIM2 (Homo sapiens, UniProt Q9P1W9)
T24 construct: purchased Eurofins Discovery (DiscoverX KINOMEscan scanMAX)
Method: as §1

[25] = molecular target: T25, CSNK1E (Homo sapiens, UniProt P49674)
T25 construct: purchased Eurofins Discovery (DiscoverX KINOMEscan scanMAX)
Method: as §1

[26] = molecular target: T26, TNIK (Homo sapiens, UniProt Q9UKE5)
T26 construct: purchased Eurofins Discovery (DiscoverX KINOMEscan scanMAX)
Method: as §1

[27] = molecular target: T27, PRKG2 (Homo sapiens, UniProt Q13237)
T27 construct: purchased Eurofins Discovery (DiscoverX KINOMEscan scanMAX)
Method: as §1

[28] = molecular target: T28, IRAK3 (Homo sapiens, UniProt Q9Y616)
T28 construct: purchased Eurofins Discovery (DiscoverX KINOMEscan scanMAX)
Method: as §1

[29] = molecular target: T29, FGFR2 (Homo sapiens, UniProt P21802)
T29 construct: purchased Eurofins Discovery (DiscoverX KINOMEscan scanMAX)
Method: as §1

[30] = molecular target: T30, CASK (Homo sapiens, UniProt O14936)
T30 construct: purchased Eurofins Discovery (DiscoverX KINOMEscan scanMAX)
Method: as §1

[31] = molecular target: T31, BRSK2 (Homo sapiens, UniProt Q8IWQ3)
T31 construct: purchased Eurofins Discovery (DiscoverX KINOMEscan scanMAX)
Method: as §1

[32] = molecular target: T32, EGFR(L858R) (Homo sapiens, UniProt P00533, L858R)
T32 construct: purchased Eurofins Discovery (DiscoverX KINOMEscan scanMAX)
Method: as §1

[33] = molecular target: T33, EGFR(L861Q) (Homo sapiens, UniProt P00533, L861Q)
T33 construct: purchased Eurofins Discovery (DiscoverX KINOMEscan scanMAX)
Method: as §1

[34] = molecular target: T34, MAP4K3 (Homo sapiens, UniProt Q8IVH8)
T34 construct: purchased Eurofins Discovery (DiscoverX KINOMEscan scanMAX)
Method: as §1

T19 sequence (P06241 whole entry): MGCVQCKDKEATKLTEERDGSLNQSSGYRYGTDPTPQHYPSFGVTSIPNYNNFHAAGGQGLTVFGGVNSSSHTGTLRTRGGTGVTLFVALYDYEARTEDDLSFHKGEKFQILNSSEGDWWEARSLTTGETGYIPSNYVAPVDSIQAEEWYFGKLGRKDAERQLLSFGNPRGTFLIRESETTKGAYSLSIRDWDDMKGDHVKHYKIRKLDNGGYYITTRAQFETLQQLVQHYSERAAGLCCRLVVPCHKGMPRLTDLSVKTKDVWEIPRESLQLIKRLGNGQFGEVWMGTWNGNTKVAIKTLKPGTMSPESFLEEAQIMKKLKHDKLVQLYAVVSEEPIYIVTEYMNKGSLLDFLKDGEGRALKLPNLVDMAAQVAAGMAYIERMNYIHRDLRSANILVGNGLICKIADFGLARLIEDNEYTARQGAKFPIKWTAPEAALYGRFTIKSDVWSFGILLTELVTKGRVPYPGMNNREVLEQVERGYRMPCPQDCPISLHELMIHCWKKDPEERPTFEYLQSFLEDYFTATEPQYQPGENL
T9 sequence (Q9NYY3 whole entry): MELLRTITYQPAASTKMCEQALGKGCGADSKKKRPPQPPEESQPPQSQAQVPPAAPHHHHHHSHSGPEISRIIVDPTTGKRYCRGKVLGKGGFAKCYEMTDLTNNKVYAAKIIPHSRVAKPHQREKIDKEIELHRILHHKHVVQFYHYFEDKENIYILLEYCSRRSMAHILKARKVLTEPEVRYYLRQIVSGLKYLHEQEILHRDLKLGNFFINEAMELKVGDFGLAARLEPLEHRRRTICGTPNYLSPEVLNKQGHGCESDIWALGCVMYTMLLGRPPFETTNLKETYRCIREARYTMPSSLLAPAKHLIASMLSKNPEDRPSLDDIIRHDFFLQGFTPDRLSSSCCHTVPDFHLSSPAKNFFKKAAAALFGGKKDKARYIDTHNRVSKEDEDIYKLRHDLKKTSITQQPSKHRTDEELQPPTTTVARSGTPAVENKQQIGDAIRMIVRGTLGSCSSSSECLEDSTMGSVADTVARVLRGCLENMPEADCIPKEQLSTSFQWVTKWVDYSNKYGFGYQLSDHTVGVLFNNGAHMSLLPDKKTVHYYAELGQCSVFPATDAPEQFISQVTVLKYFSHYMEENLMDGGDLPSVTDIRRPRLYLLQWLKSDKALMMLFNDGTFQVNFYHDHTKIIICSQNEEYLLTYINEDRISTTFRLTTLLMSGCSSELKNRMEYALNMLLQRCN
T30 sequence (O14936 whole entry): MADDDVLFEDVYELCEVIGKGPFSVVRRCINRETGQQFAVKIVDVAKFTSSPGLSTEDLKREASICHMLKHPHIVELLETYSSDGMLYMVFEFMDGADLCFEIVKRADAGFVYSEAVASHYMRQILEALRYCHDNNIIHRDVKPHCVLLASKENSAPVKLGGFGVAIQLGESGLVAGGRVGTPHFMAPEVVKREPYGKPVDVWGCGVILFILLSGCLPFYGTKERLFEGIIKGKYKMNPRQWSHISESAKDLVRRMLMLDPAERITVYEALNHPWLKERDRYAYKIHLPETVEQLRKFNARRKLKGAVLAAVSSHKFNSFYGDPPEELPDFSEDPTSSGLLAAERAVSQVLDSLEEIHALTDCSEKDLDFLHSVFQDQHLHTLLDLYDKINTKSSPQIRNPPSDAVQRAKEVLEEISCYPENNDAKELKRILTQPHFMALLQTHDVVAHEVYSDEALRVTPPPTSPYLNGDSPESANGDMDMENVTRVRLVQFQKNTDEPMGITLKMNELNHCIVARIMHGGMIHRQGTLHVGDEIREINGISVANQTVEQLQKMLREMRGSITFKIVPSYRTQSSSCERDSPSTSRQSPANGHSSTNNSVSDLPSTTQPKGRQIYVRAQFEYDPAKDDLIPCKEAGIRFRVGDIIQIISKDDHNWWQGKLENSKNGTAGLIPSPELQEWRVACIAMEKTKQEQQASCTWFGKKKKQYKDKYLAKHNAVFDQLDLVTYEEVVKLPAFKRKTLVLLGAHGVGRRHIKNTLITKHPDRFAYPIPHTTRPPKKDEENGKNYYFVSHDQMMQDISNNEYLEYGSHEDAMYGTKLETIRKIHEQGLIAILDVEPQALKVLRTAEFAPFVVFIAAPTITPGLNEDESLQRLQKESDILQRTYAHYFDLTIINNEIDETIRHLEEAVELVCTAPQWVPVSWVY
T31 sequence (Q8IWQ3 whole entry): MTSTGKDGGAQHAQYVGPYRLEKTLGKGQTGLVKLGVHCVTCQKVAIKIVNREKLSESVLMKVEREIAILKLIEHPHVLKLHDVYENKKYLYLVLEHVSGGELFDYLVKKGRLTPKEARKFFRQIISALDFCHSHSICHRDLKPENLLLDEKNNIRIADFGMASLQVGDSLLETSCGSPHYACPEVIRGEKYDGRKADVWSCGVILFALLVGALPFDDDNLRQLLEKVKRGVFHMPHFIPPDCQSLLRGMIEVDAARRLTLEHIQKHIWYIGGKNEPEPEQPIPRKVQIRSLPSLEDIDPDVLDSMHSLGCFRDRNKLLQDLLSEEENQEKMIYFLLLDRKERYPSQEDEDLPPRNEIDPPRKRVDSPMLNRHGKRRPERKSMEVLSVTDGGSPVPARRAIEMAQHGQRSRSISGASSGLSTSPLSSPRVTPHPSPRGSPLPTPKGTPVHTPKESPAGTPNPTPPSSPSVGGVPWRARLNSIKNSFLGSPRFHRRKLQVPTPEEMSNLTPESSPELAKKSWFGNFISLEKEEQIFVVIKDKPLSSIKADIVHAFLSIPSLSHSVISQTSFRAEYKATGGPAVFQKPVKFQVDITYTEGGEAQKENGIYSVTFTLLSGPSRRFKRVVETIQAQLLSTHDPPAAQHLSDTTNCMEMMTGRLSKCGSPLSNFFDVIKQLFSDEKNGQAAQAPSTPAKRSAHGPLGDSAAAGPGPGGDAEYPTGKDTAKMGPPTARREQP
T6 sequence (O14578 whole entry): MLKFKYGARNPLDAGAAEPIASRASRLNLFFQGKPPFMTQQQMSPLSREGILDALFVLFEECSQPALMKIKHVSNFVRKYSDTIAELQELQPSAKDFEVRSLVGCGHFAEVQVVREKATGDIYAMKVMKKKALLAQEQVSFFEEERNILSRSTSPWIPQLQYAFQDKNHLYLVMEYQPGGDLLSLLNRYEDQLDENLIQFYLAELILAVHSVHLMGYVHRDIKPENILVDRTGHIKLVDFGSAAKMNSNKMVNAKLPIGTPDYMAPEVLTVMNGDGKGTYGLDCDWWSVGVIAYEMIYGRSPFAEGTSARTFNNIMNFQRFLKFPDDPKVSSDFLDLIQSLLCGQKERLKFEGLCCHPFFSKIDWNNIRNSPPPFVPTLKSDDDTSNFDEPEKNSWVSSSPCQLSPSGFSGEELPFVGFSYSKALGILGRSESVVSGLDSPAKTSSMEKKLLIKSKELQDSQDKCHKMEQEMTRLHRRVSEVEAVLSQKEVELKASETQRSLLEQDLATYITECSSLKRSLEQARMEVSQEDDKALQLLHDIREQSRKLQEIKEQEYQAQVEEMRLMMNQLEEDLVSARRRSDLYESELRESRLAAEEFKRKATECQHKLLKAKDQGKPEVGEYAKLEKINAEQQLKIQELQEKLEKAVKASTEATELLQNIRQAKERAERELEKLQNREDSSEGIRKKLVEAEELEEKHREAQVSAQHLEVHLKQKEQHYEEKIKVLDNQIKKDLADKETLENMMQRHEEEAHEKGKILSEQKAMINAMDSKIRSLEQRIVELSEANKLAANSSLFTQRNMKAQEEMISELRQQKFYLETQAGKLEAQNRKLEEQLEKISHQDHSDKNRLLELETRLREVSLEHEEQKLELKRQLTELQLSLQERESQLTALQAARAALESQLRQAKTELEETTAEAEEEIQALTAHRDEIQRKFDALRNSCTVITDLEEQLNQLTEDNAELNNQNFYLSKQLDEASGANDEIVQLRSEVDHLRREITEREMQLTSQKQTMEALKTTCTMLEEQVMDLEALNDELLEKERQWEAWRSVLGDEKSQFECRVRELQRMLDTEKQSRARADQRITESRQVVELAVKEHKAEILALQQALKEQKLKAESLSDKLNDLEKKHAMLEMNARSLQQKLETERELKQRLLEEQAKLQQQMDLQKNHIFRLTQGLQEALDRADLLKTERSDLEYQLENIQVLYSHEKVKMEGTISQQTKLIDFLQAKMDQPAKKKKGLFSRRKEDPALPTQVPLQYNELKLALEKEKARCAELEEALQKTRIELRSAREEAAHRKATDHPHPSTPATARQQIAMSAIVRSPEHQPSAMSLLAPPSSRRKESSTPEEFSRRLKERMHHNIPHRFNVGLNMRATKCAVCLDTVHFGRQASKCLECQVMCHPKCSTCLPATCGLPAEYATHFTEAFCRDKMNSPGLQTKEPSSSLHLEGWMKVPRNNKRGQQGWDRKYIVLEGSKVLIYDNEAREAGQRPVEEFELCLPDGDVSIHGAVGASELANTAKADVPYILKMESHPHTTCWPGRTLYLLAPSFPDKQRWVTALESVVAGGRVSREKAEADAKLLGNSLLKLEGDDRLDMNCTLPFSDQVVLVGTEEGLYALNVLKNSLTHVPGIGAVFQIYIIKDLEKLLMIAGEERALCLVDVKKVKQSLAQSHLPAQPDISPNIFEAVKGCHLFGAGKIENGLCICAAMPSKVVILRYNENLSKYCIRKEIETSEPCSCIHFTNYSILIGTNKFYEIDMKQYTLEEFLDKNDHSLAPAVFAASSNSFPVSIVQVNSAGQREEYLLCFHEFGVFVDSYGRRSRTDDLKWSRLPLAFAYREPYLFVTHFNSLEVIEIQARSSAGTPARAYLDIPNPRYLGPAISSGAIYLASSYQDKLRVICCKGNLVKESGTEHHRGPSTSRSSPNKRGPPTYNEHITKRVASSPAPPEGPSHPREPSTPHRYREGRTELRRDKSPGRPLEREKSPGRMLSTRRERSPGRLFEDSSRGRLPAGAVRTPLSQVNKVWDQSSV

Cc1cc(Nc2ccc(F)c(CC3(C(=O)N4CCC(F)(CN5CCN(c6ccc(N7CCC(=O)NC7=O)cn6)CC5)CC4)CCN(Cc4cccc(Cl)c4F)CC3)n2)n[nH]1 [SK5527]
remaining binding at 0.1 µM ([1]; 100 nM): 100% | remaining binding at 1 µM ([1]; 1000 nM): 100% | remaining binding at 0.1 µM ([2]; 100 nM): 51% | remaining binding at 1 µM ([2]; 1000 nM): 51% | remaining binding at 0.1 µM ([3]; 100 nM): 77% | remaining binding at 1 µM ([3]; 1000 nM): 85% | remaining binding at 0.1 µM ([4]; 100 nM): 100% | remaining binding at 1 µM ([4]; 1000 nM): 100% | remaining binding at 0.1 µM ([5]; 100 nM): 94% | remaining binding at 1 µM ([5]; 1000 nM): 91% | remaining binding at 0.1 µM ([6]; 100 nM): 100% | remaining binding at 1 µM ([6]; 1000 nM): 100% | remaining binding at 0.1 µM ([7]; 100 nM): 67% | remaining binding at 1 µM ([7]; 1000 nM): 46% | remaining binding at 0.1 µM ([8]; 100 nM): 100% | remaining binding at 1 µM ([8]; 1000 nM): 41% | remaining binding at 0.1 µM ([9]; 100 nM): 100% | remaining binding at 1 µM ([9]; 1000 nM): 87% | remaining binding at 0.1 µM ([10]; 100 nM): 98% | remaining binding at 1 µM ([10]; 1000 nM): 100% | remaining binding at 0.1 µM ([11]; 100 nM): 100% | remaining binding at 1 µM ([11]; 1000 nM): 63% | remaining binding at 0.1 µM ([12]; 100 nM): 88% | remaining binding at 1 µM ([12]; 1000 nM): 39% | remaining binding at 0.1 µM ([13]; 100 nM): 97% | remaining binding at 1 µM ([13]; 1000 nM): 95% | remaining binding at 0.1 µM ([14]; 100 nM): 100% | remaining binding at 1 µM ([14]; 1000 nM): 100% | remaining binding at 0.1 µM ([15]; 100 nM): 85% | remaining binding at 1 µM ([15]; 1000 nM): 85% | remaining binding at 0.1 µM ([16]; 100 nM): 97% | remaining binding at 1 µM ([16]; 1000 nM): 98% | remaining binding at 0.1 µM ([17]; 100 nM): 93% | remaining binding at 1 µM ([17]; 1000 nM): 79% | remaining binding at 0.1 µM ([18]; 100 nM): 93% | remaining binding at 1 µM ([18]; 1000 nM): 59% | remaining binding at 0.1 µM ([19]; 100 nM): 94% | remaining binding at 1 µM ([19]; 1000 nM): 71% | remaining binding at 0.1 µM ([20]; 100 nM): 100% | remaining binding at 1 µM ([20]; 1000 nM): 100% | remaining binding at 0.1 µM ([21]; 100 nM): 100% | remaining binding at 1 µM ([21]; 1000 nM): 100% | remaining binding at 0.1 µM ([22]; 100 nM): 89% | remaining binding at 1 µM ([22]; 1000 nM): 78% | remaining binding at 0.1 µM ([23]; 100 nM): 81% | remaining binding at 1 µM ([23]; 1000 nM): 78% | remaining binding at 0.1 µM ([24]; 100 nM): 60% | remaining binding at 1 µM ([24]; 1000 nM): 71% | remaining binding at 0.1 µM ([25]; 100 nM): 92% | remaining binding at 1 µM ([25]; 1000 nM): 91% | remaining binding at 0.1 µM ([26]; 100 nM): 96% | remaining binding at 1 µM ([26]; 1000 nM): 90% | remaining binding at 0.1 µM ([27]; 100 nM): 86% | remaining binding at 1 µM ([27]; 1000 nM): 78% | remaining binding at 0.1 µM ([28]; 100 nM): 100% | remaining binding at 1 µM ([28]; 1000 nM): 100% | remaining binding at 0.1 µM ([29]; 100 nM): 100% | remaining binding at 1 µM ([29]; 1000 nM): 90% | remaining binding at 0.1 µM ([30]; 100 nM): 93% | remaining binding at 1 µM ([30]; 1000 nM): 87% | remaining binding at 0.1 µM ([31]; 100 nM): 100% | remaining binding at 1 µM ([31]; 1000 nM): 100% | remaining binding at 0.1 µM ([32]; 100 nM): 97% | remaining binding at 1 µM ([32]; 1000 nM): 83% | remaining binding at 0.1 µM ([33]; 100 nM): 95% | remaining binding at 1 µM ([33]; 1000 nM): 100% | remaining binding at 0.1 µM ([34]; 100 nM): 82% | remaining binding at 1 µM ([34]; 1000 nM): 72%
